According to publication PMC11397024, “Strategic Fluorination to Achieve a Potent, Selective, Metabolically Stable, and Orally Bioavailable Inhibitor of CSNK2” (Molecules, 2024):
Like-named read-outs stand apart in the source and are kept apart here.

Legend:
CLK2 = target: T1, CLK2 (Homo sapiens, UniProt P49760); test: NanoBRET dose-response CLK2; assay type: cell-based; details: highest concentration tested 30 μM
T1 construct: expressed in transfected cells; host or cells: HEK293

24 h PK study in mice = assay type: in vivo, CD-1 mice; details: for concentration at 24 h: mouse, CD-1 mice, below limit of quantification, read-out: plasma concentration at the 24 h time point
Protocol: In the 24 h PK study, male CD-1 mice (6–8 weeks old, 20–30 g) were dosed by intravenous (i.v.), oral (p.o.), or intraperitoneal (i.p.) administration of compound 2. For i.v. administration, a single dose of compound 2 (3 mg/kg) was administered as 5 mL/kg of a 0.6 mg/mL solution in DMSO/PEG-400/Water (v/v/v, 10:30:60) to six mice. For p.o. administration, a single dose of compound 2 (10 mg/kg) was administered as 10 mL/kg of a 1 mg/mL solution in DMSO/PEG-400/Water (v/v/v, 10:30:60) to six mice. For i.p. administration, a single dose of compound 2 (10 mg/kg) was administered as 10 mL/kg of a 1 mg/mL solution in DMSO/PEG-400/Water (v/v/v, 10:30:60) to six mice. The mice had free access to water and food. At 0.083, 0.25, 0.5, 1, 2, 4, 8, 12, and 24 h post dose administration, 0.03 mL of blood was collected from the dorsal metatarsal vein of three mice at each time point. Each blood sample was transferred into a plastic microcentrifuge tube containing EDTA-K2 anticoagulant and mixed well with the anticoagulant then placed on ice prior to centrifugation at 4000× g for 5 min at 4 °C to obtain plasma. The samples were stored in a freezer at −75 ± 15 °C prior to analysis. At 12 h post dose administration and 24 h post dose administration, three mice were anesthetized using increasing concentrations of CO2, and lung samples were collected. Lung samples were quickly frozen in an ice box and stored at −75 ± 15 °C. Prior to analysis, all lung samples were weighed and homogenized with phosphate-buffered saline (PBS) in a lung weight (g)/buffer volume (mL) ratio of 1:3. The final concentration of the compound was calculated by multiplying the detected concentration by a dilution factor of four.
Concentrations of the test compound in the plasma samples were determined using a Prominence LC-MS/MS system with a DGU-20A5R(C) degasser, LC-30AD pump, CBM-20A system controller, SIL-20AC HT autosampler; Rack changer II, HALO 90A ES-CN (2.7 μm, 2.1 × 50 mm) column, and AB Sciex Triple Quan 5500 LC/MS/MS instrument. The mobile phase was 5–95% MeCN in H2O, with 0.1% formic acid. The desired serial concentrations of working solutions were achieved by diluting the stock solution of the analyte with 50% acetonitrile in water. A series of 10 µL working solutions […] were added to 10 μL of blank plasma or lung homogenate to achieve calibration standards of 0.5, 1, 2, 5, 10, 50, 100, 500, 1000 ng/mL in a total volume of 20 μL. A total of 5 quality control samples at 1 ng/mL, 2 ng/mL, 5 ng/mL, 100 ng/mL, and 800 ng/mL were prepared independently of those used for the calibration curves in the same manner. A 20 μL standard, 20 μL QC sample, and 20 μL of an unknown sample (10 µL plasma or lung homogenate with 10 µL blank solution) were added to 200 μL of acetonitrile containing internal standard mixture for precipitating protein. Then, the samples were vortexed for 30 s. After centrifugation at 4 °C and 4000 rpm for 15 min, the supernatant was diluted with ultrapure water at a ratio of 1:2 (v/v, 1:2), then 20 µL of diluted supernatant was injected into the LC/MS/MS system for quantitative analysis. PK parameters were calculated from the mean plasma concentration versus time using a noncompartmental model in WinNonlin Phoenix version 8.3.

[1] = Unbound fraction in mouse plasma; assay type: in vitro ADME; details: read-out: unbound fraction in mouse plasma (fu)
[2] = test system: mouse hepatitis virus (MHV); test: MHV assay (MHV-nLuc in DBT cells); details: Murine coronavirus, read-out: MHV pIC50 (converted)
Protocol: DBT cells were cultured at 37 °C in Dulbecco’s modified Eagle medium (DMEM; Sigma-Aldrich, St. Louis, MO, USA) supplemented with 10% fetal bovine serum (FBS; Avantor, Randor, PA, USA) and penicillin and streptomycin (Sigma-Aldrich, St. Louis, MO, USA). DBT cells were plated in 96-well plates to be 80% confluent at the start of the assay. Test compounds or positive control EIDD-1931 were diluted to 15 μM in DMEM. Serial 4-fold dilutions were made in DMEM, providing a concentration range of 15–0.22 μM. Media were aspirated from the DBT cells, and 100 μL of the diluted test compounds was added to the cells for 1 h at 37 °C. After 1 h, MHV-nLuc5 was added at an MOI of 0.1 in 50 μL of DMEM so that the final concentration of the first dilution of the compound was 10 μM (T = 0). After 10 h, the media were aspirated, and the cells were washed with PBS and lysed with passive lysis 5X buffer (Promega, Madison, WI, USA) for 20 min at room temperature. Relative light units (RLUs) were measured using a luminometer (Promega; GloMax, Madison, WI, USA). Triplicate data were analyzed in GraphPad Prism version 9.4.1 for macOS to generate IC50 values.

CSNK2 = test: In vivo CSNK2 inhibition (substrate phosphorylation in lungs); parameters: species or system Balb/c mice; details: 30 mg/kg p.o. b.i.d.
Protocol: Balb/c mice (female, 8-10 weeks old, from Envigo, Inotiv, Indianapolis, IN, USA) were treated with compound 2 at 30 mg/kg p.o. in a vehicle (DMSO/PEG-400/Water (v/v/v), 10:30:60). Mice were dosed every 12 h for a total of 36 h (3 doses). At the determined time points, mice were euthanized using an overdose of isoflurane (Baxter, Deerfield, IL, USA). Blood was collected via cardiac puncture and lung lobes were collected for downstream processing and analysis. Recovered blood was placed in EDTA tubes, spun at 5000× g in a microcentrifuge and the recovered plasma transferred to a clean tube and frozen at -80 °C until analysis. The left lung lobe was added to a 2 mL O-ring skirted tube containing 750 μL of 1 × PBS containing Phos Stop (per the manufacturer's recommendation, Roche) and glass beads. Lungs were homogenized for 60 s at 6000 rpm in a Roche MagNA Lyser. Homogenates were centrifuged for 5 min at 10,000 rpm and 500 μL of the homogenate was transferred to a clean tube and frozen at -80 °C until analysis. […] Samples were quantified using the Piece Rapid Gold BCA Protein Assay kit (ThermoFisher, A53226, Waltham, MA, USA), and 50 μg protein was run on 4-20% Tris-Glycine gels and transferred to PVDF. […] Bands were quantified using Fiji and normalized to GAPDH. […]

[3] = male, ip, CD-1 mouse plasma, 10 mg/kg i.p.
[4] = male, iv, CD-1 mouse plasma, 3 mg/kg i.v.
[5] = male, po, CD-1 mouse plasma, 10 mg/kg p.o.

T1 sequence (P49760 whole entry): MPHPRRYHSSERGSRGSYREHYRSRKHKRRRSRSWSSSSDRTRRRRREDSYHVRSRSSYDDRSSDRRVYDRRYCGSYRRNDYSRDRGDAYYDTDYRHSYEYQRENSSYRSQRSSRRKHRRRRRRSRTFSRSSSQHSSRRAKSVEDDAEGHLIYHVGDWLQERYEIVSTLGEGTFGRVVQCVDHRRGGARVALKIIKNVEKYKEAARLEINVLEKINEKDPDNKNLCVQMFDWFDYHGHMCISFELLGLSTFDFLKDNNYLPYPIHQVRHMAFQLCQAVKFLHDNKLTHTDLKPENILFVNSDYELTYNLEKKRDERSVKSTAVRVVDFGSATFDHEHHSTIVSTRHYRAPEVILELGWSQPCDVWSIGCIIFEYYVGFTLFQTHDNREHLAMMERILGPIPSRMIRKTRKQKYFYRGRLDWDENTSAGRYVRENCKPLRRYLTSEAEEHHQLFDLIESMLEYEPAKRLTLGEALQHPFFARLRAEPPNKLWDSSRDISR

For `CCC(=O)Nc1cc(Nc2cc(NC3CC3)n3ncc(C#N)c3n2)c(F)cc1N1CCC[C@H](NC)C1` [Compound 2, (S)-N-(5-((3-cyano-7-(cyclopropylamino)pyrazolo[1,5-a]pyrimidin-5-yl)amino)-4-fluoro-2-(3-(methylamino)piperidin-1-yl)phenyl)propionamide], the IC50 (CLK2) was greater than 30 µM, the AUC(0-t) (24 h PK study in mice; [3]) was 10.1 µM·h and the Cmax (24 h PK study in mice; [3]) was 2.65 µM. It also gave a Tmax (24 h PK study in mice; [3]) of 0.5 h, a half-life (24 h PK study in mice; [3]) of 2.5 h and an AUC(0-t) (24 h PK study in mice; [4]) of 1.87 µM·h. The half-life (24 h PK study in mice; [4]) was 1.9 h, the Vd (24 h PK study in mice; male, iv, CD-1 mouse plasma, 3 mg/kg i.v., read-out: Vdss) was 3.5 L/kg and the concentration at 24 h (24 h PK study in mice; male, plasma, iv, 3 mg/kg i.v.) was less than 0.00102 µM. It also gave a concentration at 24 h (24 h PK study in mice; male, plasma, po, 10 mg/kg p.o.) of less than 0.00102 µM, a bioavailability (24 h PK study in mice; male, plasma, po, CD-1 mouse, 10 mg/kg p.o.) of 52% and an AUC(0-t) (24 h PK study in mice; [5]) of 3.13 µM·h. For the same compound, the Cmax (24 h PK study in mice; [5]) was 0.563 µM, the Tmax (24 h PK study in mice; [5]) was 2.7 h and the half-life (24 h PK study in mice; [5]) was 2.1 h. The lung concentrations (24 h PK study in mice; mice, 12 and 24 h post dose administration) was “accumulated in the lungs”, the fraction unbound [1] was 0.0605 and the IC50 [2] was 0.158 µM. The “EIF2S2 (phospho-Ser2) levels normalized to total EIF2S2 in mouse lungs” value (CSNK2; 3, 6, 36 h, small decrease at 3 h, p = 0.14) was “no statistically significant difference” and the “AKT (phospho-Ser129) levels normalized to total AKT in mouse lungs” value (CSNK2; 3 h time point, p = 0.0028) was “A decrease in the phosphorylation levels of Ser129 of AKT”.
